According to paper PMC7866984, “Molecular Structure, In Vitro Anticancer Study and Molecular Docking of New Phosphate Derivatives of Betulin” (Molecules, 2021):
Like-named read-outs stand apart in the source and are kept apart here.

Tests used:
[1] = tested on: breast cancer MDA-MB-231 cells; assay: WST-1 cell viability assay, MDA-MB-231; type: cell-based, human; settings: for IC50: read-out: IC50 ± SD, MDA-MB-231
Procedure: (§1) Evaluation of the effect of new betulin derivatives on the viability of the cultured cells was performed using the WST-1(water soluble tetrazolium salt) assay. Betulin 1 and cisplatin were used as the reference compounds.
(§2) The synthesized compounds and references were tested for cytotoxic activity in vitro against human cancer cell lines such as amelanotic melanoma (C-32, ATCC, Rockville, MD, USA), glioblastoma (SNB-19, DSMZ, Braunschweig, Germany), and breast cancer (T47D, and MDA-MB-231, ATCC, Rockville, MD, USA). Cell cultures were maintained using DMEM (Lonza, Basel, Switzerland) supplemented with 10% fetal bovine serum (FBS) (Biological Industries Cromwell, CT, USA) and penicillin (10,000 U/mL) –streptomycin (10 mg/mL) mix (Lonza, Basel, Switzerland).
(§3) Cultures were performed in 96-well plates (Nunc Thermo Fisher Scientific, Waltham, MA, USA). Cells were seeded at 5 × 10^4/well and incubated for 24 h (at 37 °C, 5% CO2, constant humidity). Then, the medium was replaced with a fresh one with the addition of test compounds in the concentration: 25; 12.5; 6.25; 3.12; 1.56; 0.78; 0.39; 0 µg/mL and incubated again for a further 72 h. After this time, the WST-1 test (Roche Molecular Biochemicals, Mannheim, Germany) was performed to assess the metabolic activity of the cells. The principle of the WST-1 colorimetric test is based on the ability of live cells to decompose bright red tetrazole salts of WST-1 to dark red formazan. The reaction is mediated by mitochondrial dehydrogenases and correlates with the number of cells and their metabolic activity. The absorbance was measured at λ = 450 nm with a UVM340 microplate reader (Biogenet, Józefów, Poland). Results were expressed as a mean value of at least three independent experiments performed in triplicate.

[2] = tested on: amelanotic melanoma (C-32) cells; assay: WST-1 cell viability assay, C-32; type: cell-based, human; settings: WST-1, 72 h
Procedure: as §1, §2, §3

breast cancer T47D cells = assay: WST-1 cell viability assay, T47D; type: cell-based, human; settings: for IC50: read-out: IC50 ± SD, T47D
Procedure: as §1, §2, §3

[3] = tested on: glioblastoma (SNB-19) cells; assay: WST-1 cell viability assay, SNB-19; type: cell-based, human; settings: for IC50: WST-1, 72 h
Procedure: as §1, §2, §3

[4] = RP-TLC experimental lipophilicity; type: physicochemical; settings: for RM0 / logPTLC: RP-TLC; for RM0: acetone/Tris buffer pH 7.4, extrapolated to zero acetone; for logPTLC: from RM0 by calibration equation; for -b: slope of regression plot RM = RM0 + bC
Excerpt: Lipophilicity is an important physicochemical parameter related to the biological activity of compounds. This descriptor, contained in Lipiński’s rule of five, concerns the transport of a compound through the biological membrane system and the formation of a compound–receptor complex. To assess the lipophilic nature of triterpenoids 3–5, 6a–6e, and 7a–7e, the reverse phase chromatography (RP-TLC) method was used (chromatographic procedure by RP-TLC is included in the Supplementary Materials). The theoretical characteristics of the chromatographic parameters (RM0, log PTLC) of the tested derivatives were also performed. […]
Chromatographic procedure by RP-TLC
The experimental lipophilicity parameters was determined using reversed-phase thin-layer chromatography (RP-TLC). The stationary phase was an aluminium backed silica gel RP-18 F254 S plates (Merck, Darmstadt, Germany). Chloroform solutions of reference compounds […]
(acetanilide, 4-bromoacetophenone, benzophenone, anthracene, DDT) and triterpenes 3-5, 6a-6e and 7a-7e were spotted on to the plates in the amount of 2 µL. The chromatograms were performed in triplicate for each compound. The chromatographic chambers were filled of mobile phases consisting of a mixture of acetone (POCh, Gliwice, Poland) and aqueous solution of buffer Tris [(tris-hydroxymethyl)aminomethane] (Fluka, Loughborough, 0.2 M, pH 7.4). The percent acetone volume was varied within the range of 90-60%, in 5% increments. The spots of compounds were visualized by spraying the plates with 10% ethanolic solution of sulphuric acid (VI) and heating for 3 min at 110°C [60]]. The RM values were calculated by the equation RM = log (1/Rf-1) on the basis of average Rf values. The RM0 parameters were obtained by extrapolating on the acetone content to zero, according to the equation RM = RM0 + bC (C – the percentage concentration of acetone in the mobile phase, b – the slope of the regression plot).
The experimental lipophilicity as log PTLC for triterpenes 3-5, 6a-6e and 7a-7e was calculated […]
obtained on the correlation between the literature log Plit values and the experimental RM0 values […]
Table S5. The theoretical values of lipophilicity for tested compounds 3-5, 6a-6e and 7a- […]
Table S6. The correlation matrix for theoretically obtained lipophilicity parameters of compounds 3-5, 6a-6e and 7a-7e. […]

[5] = Homo sapiens, C32, 72 h, read-out: IC50 ± SD, C-32
[6] = Homo sapiens, SNB-19, 72 h, read-out: IC50 ± SD, SNB-19
[7] = Homo sapiens, C32, 72 h, Table 5, betulonic/betulinic acid derivatives, read-out: IC50, C-32
[8] = Homo sapiens, SNB-19, 72 h, Table 5, betulonic/betulinic acid derivatives, read-out: IC50, SNB-19

| SMILES | RM0 [4] | logPTLC [4] | -b [4] | melting point | IC50 (breast cancer T47D cells; Homo sapiens, T47D, 72 h) | IC50 [2, 7] | IC50 [3, 8] | also measured |
| --- | --- | --- | --- | --- | --- | --- | --- | --- |
| C=C(C)[C@@H]1CC[C@]2(CO)CC[C@]3(C)[C@H](CC[C@@H]4[C@@]5(C)CC[C@H](O)C(C)(C)[C@@H]5CC[C@]43C)[C@@H]12 [Betulin] |  |  |  |  |  |  |  | IC50 ([1]; Homo sapiens, MDA-MB-231, WST-1, 72 h): 7.76 ± 1.87 µM; IC50 ([2]; Homo sapiens, C32, read-out: IC50 ± SD, C-32): 15.6 ± 1.11 µM; IC50 (breast cancer T47D cells; Homo sapiens, T47D, WST-1, 72 h): > 50 µM; IC50 ([3]; Homo sapiens, SNB-19, read-out: IC50 ± SD, SNB-19): 9.93 ± 0.25 µM |
| N.N.[Cl][Pt][Cl] [Cisplatin, reference compound] |  |  |  |  |  |  |  | IC50 ([1]; WST-1, 72 h): 5.47 ± 0.05 µM; IC50 ([2]; read-out: IC50 ± SD, C-32): 4.29 ± 0.65 µM; IC50 (breast cancer T47D cells; WST-1, 72 h): 6.26 ± 1.24 µM; IC50 ([3]; read-out: IC50 ± SD, SNB-19): 5.29 ± 0.12 µM |
| C=C(CO)[C@@H]1CC[C@]2(COC(C)=O)CC[C@]3(C)C(CCC4[C@@]5(C)CC[C@H](OC(C)=O)C(C)(C)C5CC[C@]43C)C12 (some centres unmarked) [Compound 3, 3,28-Diacetyl-30-hydroxybetulin] | 5.655 | 7.362 | 0.064 |  |  |  |  |  |
| C=C(COP(=O)(OCC)OCC)[C@@H]1CC[C@]2(COC(C)=O)CC[C@]3(C)C(CCC4[C@@]5(C)CC[C@H](OC(C)=O)C(C)(C)C5CC[C@]43C)C12 (some centres unmarked) [Compound 4, 3,28-Diacetoxy-30-diethoxyphosphoryloxybetulin] | 5.740 | 7.470 | 0.064 | 61 to 63 °C | 1.3 ± 0.13 µM |  |  | IC50 ([1]; Homo sapiens, MDA-MB-231, 72 h): 14.5 ± 1.37 µM; IC50 [2, 5]: 33.9 ± 1.59 µM; IC50 [3, 6]: 5.01 ± 0.78 µM |
| C=C(COP(=O)(OCC)OCC)C1CCC2(CO)CCC3(C)C(CCC4C5(C)CCC(O)C(C)(C)C5CCC43C)C12 (centres unmarked) [Compound 5, 30-Diethoxyphosphoryloxybetulin] | 3.719 | 4.914 | 0.046 | 194 to 195 °C | 1.04 ± 0.14 µM |  |  | IC50 ([1]; Homo sapiens, MDA-MB-231, 72 h): 0.4 ± 0.02 µM; IC50 [2, 5]: 43.5 ± 2.5 µM; IC50 [3, 6]: 10.9 ± 1.33 µM |
| C#CC(=O)OC[C@]12CC[C@@H](C(=C)COP(=O)(OCC)OCC)C1C1CCC3[C@@]4(C)CC[C@H](OC(=O)C#C)C(C)(C)C4CC[C@@]3(C)[C@]1(C)CC2 (some centres unmarked) [Compound 6a, 30-Diethoxyphosphoryloxy-3,28-dipropynoylbetulin] | 6.893 | 8.929 | 0.080 | 127 to 130 °C | 9.5 ± 0.74 µM |  |  |  |
| C#CCOC(=O)OC[C@]12CC[C@@H](C(=C)COP(=O)(OCC)OCC)C1C1CCC3[C@@]4(C)CC[C@H](OC(=O)OCC#C)C(C)(C)C4CC[C@@]3(C)[C@]1(C)CC2 (some centres unmarked) [Compound 6e, 30-Diethoxyphosphoryloxy-3,28-dipropargyloxycarbonyloxybetulin] | 6.490 | 8.419 | 0.076 | 129 to 131 °C | > 50 µM |  |  | IC50 [2, 5]: 11.4 ± 0.76 µM; IC50 [3, 6]: 9.23 ± 0.57 µM |
| C#CCOC(=O)OC[C@]12CC[C@@H](C(=C)COP(=O)(OCC)OCC)C1C1CCC3[C@@]4(C)CC[C@H](O)C(C)(C)C4CC[C@@]3(C)[C@]1(C)CC2 (some centres unmarked) [Compound 7e, 30-Diethoxyphosphoryloxy-28-propargyloxycarbonyloxybetulin] | 5.302 | 6.916 | 0.063 | 172 to 174 °C | > 50 µM |  |  | IC50 [2, 5]: 3.97 ± 0.86 µM; IC50 [3, 6]: 1.59 ± 0.09 µM |
| C=C(COP(=O)(OCC)OCC)[C@@H]1CC[C@]2(C(=O)O)CC[C@]3(C)C(CCC4[C@@]5(C)CCC(=O)C(C)(C)C5CC[C@]43C)C12 (some centres unmarked) [Compound 8] |  |  |  |  |  | 45.7 ± 6.85 µM | 45.8 ± 5.27 µM | activity against MDA-MB-231 (in words) [1]: no activity; activity against T47D (in words) (breast cancer T47D cells): no activity |
| C=C(COP(=O)(OCC)OCC)[C@@H]1CC[C@]2(C(=O)O)CC[C@]3(C)C(CCC4[C@@]5(C)CCC(O)C(C)(C)C5CC[C@]43C)C12 (some centres unmarked) [Compound 9] |  |  |  |  |  | > 50 µM | 5.98 ± 0.43 µM | activity against MDA-MB-231 (in words) [1]: no activity; activity against T47D (in words) (breast cancer T47D cells): no activity; IC50 fold higher than 30-phosphonate derivative of 3-acetylbetulinic acid ([3]; SNB-19): more than 4.5 fold |
| CCOP(=O)(C=C(C)C1CCC2(C(=O)O)CCC3(C)C(CCC4C5(C)CCC(=O)C(C)(C)C5CCC43C)C12)OCC (centres unmarked) [R=29-P(O)(OC2H5)2, R1=O=, reference compound] |  |  |  |  |  | 45.5 ± 3.72 µM | 1.64 ± 0.18 µM |  |
| CCOP(=O)(C=C(C)C1CCC2(C(=O)O)CCC3(C)C(CCC4C5(C)CCC(O)C(C)(C)C5CCC43C)C12)OCC (centres unmarked) [R=29-P(O)(OC2H5)2, R1=OH, reference compound] |  |  |  |  |  | 47.5 ± 2.96 µM | 7.67 ± 1.57 µM |  |
| C=C(CP(=O)(OCC)OCC)[C@@H]1CC[C@]2(C(=O)O)CC[C@]3(C)C(CCC4[C@@]5(C)CCC(OC(C)=O)C(C)(C)C5CC[C@]43C)C12 (some centres unmarked) [R=30-P(O)(OC2H5)2, R1=CH3C(O)O, reference compound] |  |  |  |  |  | 30.7 ± 2.17 µM | 1.29 ± 0.15 µM |  |
| C=C(CP(=O)(OCC)OCC)[C@@H]1CC[C@]2(C(=O)O)CC[C@]3(C)C(CCC4[C@@]5(C)CCC(O)C(C)(C)C5CC[C@]43C)C12 (some centres unmarked) [R=30-P(O)(OC2H5)2, R1=OH, reference compound] |  |  |  |  |  | > 50 µM | > 50 µM |  |
| C=C(C)[C@@H]1CC[C@]2(C(=O)O)CC[C@]3(C)[C@H](CC[C@@H]4[C@@]5(C)CC[C@H](O)C(C)(C)[C@@H]5CC[C@]43C)[C@@H]12 [betulinic acid, reference compound] |  |  |  |  |  |  |  | IC50 ([2]; Homo sapiens, C32, Table 5, betulonic/betulinic acid derivatives, read-out: IC50, C-32): 8.63 ± 0.9 µM; IC50 ([3]; Homo sapiens, SNB-19, Table 5, betulonic/betulinic acid derivatives, read-out: IC50, SNB-19): 20.1 ± 1.26 µM |
